Experimental data: article PMC7846792, “Perception of a divergent family of phytocytokines by the Arabidopsis receptor kinase MIK2” (Nature Communications, 2021)
Blank lines part the entries; values can stand above or below the molecule they belong to. No end group written: not given here.

Legend:
A. thaliana seedlings = assay: Seedling growth inhibition (fresh weight); format: in vivo, Arabidopsis thaliana; conditions: mock mean = 1
Protocol: Four-day-old seedlings growing on MS plates were transferred individually into separate wells of transparent 48-well tissue culture plates (Greiner Bio-One) containing 500 μL of liquid MS media with/without elicitor addition. The plates were then transferred back to the growth conditions for an additional 10 days before seedlings were blot-dried and weighed.

[1] = target: MIK2–SCOOP12 complex (MIK2 ectodomain with SCOOP12 peptide, formed beforehand in the ITC cell) (Arabidopsis thaliana) (UniProt Q8VZG8); assay: ITC; 200 µM BAK1 ectodomain titrated onto the MIK2–SCOOP12 complex in the cell; 25 °C; 20 mM sodium citrate pH 5.0, 150 mM NaCl; N fitted to 1

Molecule: GTGPSHSGHGGSS [SCOOP9]
Seedling fresh weight (Fig3C), relative to mock (A. thaliana seedlings; Col-0, 1 μM, replicate 1): 0.7762 | Seedling fresh weight (Fig3C), relative to mock (A. thaliana seedlings; Col-0, 1 μM, replicate 2): 0.8462 | Seedling fresh weight (Fig3C), relative to mock (A. thaliana seedlings; Col-0, 1 μM, replicate 3): 0.6605 | Seedling fresh weight (Fig3C), relative to mock (A. thaliana seedlings; Col-0, 1 μM, replicate 4): 0.7701 | Seedling fresh weight (Fig3C), relative to mock (A. thaliana seedlings; Col-0, 1 μM, replicate 5): 0.4809 | Seedling fresh weight (Fig3C), relative to mock (A. thaliana seedlings; Col-0, 1 μM, replicate 6): 0.5418 | Seedling fresh weight (Fig3C), relative to mock (A. thaliana seedlings; Col-0, 1 μM, replicate 7): 0.6179 | Seedling fresh weight (Fig3C), relative to mock (A. thaliana seedlings; Col-0, 1 μM, replicate 8): 0.7457 | Seedling fresh weight (Fig3C), relative to mock (A. thaliana seedlings; Col-0, 1 μM, replicate 9): 0.8066 | Seedling fresh weight (Fig3C), relative to mock (A. thaliana seedlings; Col-0, 1 μM, replicate 10): 0.831 | Seedling fresh weight (Fig3C), relative to mock (A. thaliana seedlings; Col-0, 1 μM, replicate 11): 0.7549 | Seedling fresh weight (Fig3C), relative to mock (A. thaliana seedlings; Col-0, 1 μM, replicate 12): 0.7275 | Seedling fresh weight (Fig3C), relative to mock (A. thaliana seedlings; Col-0, 10 μM, replicate 1): 0.06065 | Seedling fresh weight (Fig3C), relative to mock (A. thaliana seedlings; Col-0, 10 μM, replicate 2): 0.1274 | Seedling fresh weight (Fig3C), relative to mock (A. thaliana seedlings; Col-0, 10 μM, replicate 3): 0.1304 | Seedling fresh weight (Fig3C), relative to mock (A. thaliana seedlings; Col-0, 10 μM, replicate 4): 0.1061 | Seedling fresh weight (Fig3C), relative to mock (A. thaliana seedlings; Col-0, 10 μM, replicate 5): 0.1395 | Seedling fresh weight (Fig3C), relative to mock (A. thaliana seedlings; Col-0, 10 μM, replicate 6): 0.08795 | Seedling fresh weight (Fig3C), relative to mock (A. thaliana seedlings; Col-0, 10 μM, replicate 7): 0.1759 | Seedling fresh weight (Fig3C), relative to mock (A. thaliana seedlings; Col-0, 10 μM, replicate 8): 0.2365 | Seedling fresh weight (Fig3C), relative to mock (A. thaliana seedlings; Col-0, 10 μM, replicate 9): 0.1395 | Seedling fresh weight (Fig3C), relative to mock (A. thaliana seedlings; Col-0, 10 μM, replicate 10): 0.2032 | Seedling fresh weight (Fig3C), relative to mock (A. thaliana seedlings; Col-0, 10 μM, replicate 11): 0.1789 | Seedling fresh weight (Fig3C), relative to mock (A. thaliana seedlings; Col-0, 10 μM, replicate 12): 0.1425 | Seedling fresh weight (Fig3C), relative to mock (A. thaliana seedlings; mik2-1, 1 μM, replicate 1): 0.8374 | Seedling fresh weight (Fig3C), relative to mock (A. thaliana seedlings; mik2-1, 1 μM, replicate 2): 1.059 | Seedling fresh weight (Fig3C), relative to mock (A. thaliana seedlings; mik2-1, 1 μM, replicate 3): 0.8173 | Seedling fresh weight (Fig3C), relative to mock (A. thaliana seedlings; mik2-1, 1 μM, replicate 4): 0.935 | Seedling fresh weight (Fig3C), relative to mock (A. thaliana seedlings; mik2-1, 1 μM, replicate 5): 0.9081 | Seedling fresh weight (Fig3C), relative to mock (A. thaliana seedlings; mik2-1, 1 μM, replicate 6): 0.9484 | Seedling fresh weight (Fig3C), relative to mock (A. thaliana seedlings; mik2-1, 1 μM, replicate 7): 1.0157 | Seedling fresh weight (Fig3C), relative to mock (A. thaliana seedlings; mik2-1, 1 μM, replicate 8): 1.056 | Seedling fresh weight (Fig3C), relative to mock (A. thaliana seedlings; mik2-1, 1 μM, replicate 9): 0.972 | Seedling fresh weight (Fig3C), relative to mock (A. thaliana seedlings; mik2-1, 1 μM, replicate 10): 1.002 | Seedling fresh weight (Fig3C), relative to mock (A. thaliana seedlings; mik2-1, 1 μM, replicate 11): 1.066 | Seedling fresh weight (Fig3C), relative to mock (A. thaliana seedlings; mik2-1, 1 μM, replicate 12): 1.039 | Seedling fresh weight (Fig3C), relative to mock (A. thaliana seedlings; mik2-1, 10 μM, replicate 1): 0.8757 | Seedling fresh weight (Fig3C), relative to mock (A. thaliana seedlings; mik2-1, 10 μM, replicate 2): 0.9704 | Seedling fresh weight (Fig3C), relative to mock (A. thaliana seedlings; mik2-1, 10 μM, replicate 3): 1.224 | Seedling fresh weight (Fig3C), relative to mock (A. thaliana seedlings; mik2-1, 10 μM, replicate 4): 0.9062 | Seedling fresh weight (Fig3C), relative to mock (A. thaliana seedlings; mik2-1, 10 μM, replicate 5): 0.9941 | Seedling fresh weight (Fig3C), relative to mock (A. thaliana seedlings; mik2-1, 10 μM, replicate 6): 0.8622 | Seedling fresh weight (Fig3C), relative to mock (A. thaliana seedlings; mik2-1, 10 μM, replicate 7): 0.9772 | Seedling fresh weight (Fig3C), relative to mock (A. thaliana seedlings; mik2-1, 10 μM, replicate 8): 0.9028 | Seedling fresh weight (Fig3C), relative to mock (A. thaliana seedlings; mik2-1, 10 μM, replicate 9): 0.94 | Seedling fresh weight (Fig3C), relative to mock (A. thaliana seedlings; mik2-1, 10 μM, replicate 10): 1.021 | Seedling fresh weight (Fig3C), relative to mock (A. thaliana seedlings; mik2-1, 10 μM, replicate 11): 0.9062 | Seedling fresh weight (Fig3C), relative to mock (A. thaliana seedlings; mik2-1, 10 μM, replicate 12): 0.9298

Molecule: YLPPSKSRKGKGP [SCOOP13]
Seedling fresh weight (Fig3C), relative to mock (A. thaliana seedlings; Col-0, 1 μM, replicate 1): 0.6301 | Seedling fresh weight (Fig3C), relative to mock (A. thaliana seedlings; Col-0, 1 μM, replicate 2): 0.5631 | Seedling fresh weight (Fig3C), relative to mock (A. thaliana seedlings; Col-0, 1 μM, replicate 3): 0.764 | Seedling fresh weight (Fig3C), relative to mock (A. thaliana seedlings; Col-0, 1 μM, replicate 4): 0.8644 | Seedling fresh weight (Fig3C), relative to mock (A. thaliana seedlings; Col-0, 1 μM, replicate 5): 0.9892 | Seedling fresh weight (Fig3C), relative to mock (A. thaliana seedlings; Col-0, 1 μM, replicate 6): 0.5388 | Seedling fresh weight (Fig3C), relative to mock (A. thaliana seedlings; Col-0, 1 μM, replicate 7): 0.6544 | Seedling fresh weight (Fig3C), relative to mock (A. thaliana seedlings; Col-0, 1 μM, replicate 8): 0.7792 | Seedling fresh weight (Fig3C), relative to mock (A. thaliana seedlings; Col-0, 1 μM, replicate 9): 0.7397 | Seedling fresh weight (Fig3C), relative to mock (A. thaliana seedlings; Col-0, 1 μM, replicate 10): 0.831 | Seedling fresh weight (Fig3C), relative to mock (A. thaliana seedlings; Col-0, 1 μM, replicate 11): 0.6483 | Seedling fresh weight (Fig3C), relative to mock (A. thaliana seedlings; Col-0, 1 μM, replicate 12): 0.7549 | Seedling fresh weight (Fig3C), relative to mock (A. thaliana seedlings; Col-0, 10 μM, replicate 1): 0.02426 | Seedling fresh weight (Fig3C), relative to mock (A. thaliana seedlings; Col-0, 10 μM, replicate 2): 0.03639 | Seedling fresh weight (Fig3C), relative to mock (A. thaliana seedlings; Col-0, 10 μM, replicate 3): 0.03942 | Seedling fresh weight (Fig3C), relative to mock (A. thaliana seedlings; Col-0, 10 μM, replicate 4): 0.03336 | Seedling fresh weight (Fig3C), relative to mock (A. thaliana seedlings; Col-0, 10 μM, replicate 5): 0.04246 | Seedling fresh weight (Fig3C), relative to mock (A. thaliana seedlings; Col-0, 10 μM, replicate 6): 0.03033 | Seedling fresh weight (Fig3C), relative to mock (A. thaliana seedlings; Col-0, 10 μM, replicate 7): 0.03639 | Seedling fresh weight (Fig3C), relative to mock (A. thaliana seedlings; Col-0, 10 μM, replicate 8): 0.06975 | Seedling fresh weight (Fig3C), relative to mock (A. thaliana seedlings; Col-0, 10 μM, replicate 9): 0.07278 | Seedling fresh weight (Fig3C), relative to mock (A. thaliana seedlings; Col-0, 10 μM, replicate 10): 0.04549 | Seedling fresh weight (Fig3C), relative to mock (A. thaliana seedlings; Col-0, 10 μM, replicate 11): 0.03942 | Seedling fresh weight (Fig3C), relative to mock (A. thaliana seedlings; Col-0, 10 μM, replicate 12): 0.04852 | Seedling fresh weight (Fig3C), relative to mock (A. thaliana seedlings; mik2-1, 1 μM, replicate 1): 0.9552 | Seedling fresh weight (Fig3C), relative to mock (A. thaliana seedlings; mik2-1, 1 μM, replicate 2): 1.033 | Seedling fresh weight (Fig3C), relative to mock (A. thaliana seedlings; mik2-1, 1 μM, replicate 3): 0.6626 | Seedling fresh weight (Fig3C), relative to mock (A. thaliana seedlings; mik2-1, 1 μM, replicate 4): 0.8038 | Seedling fresh weight (Fig3C), relative to mock (A. thaliana seedlings; mik2-1, 1 μM, replicate 5): 1.026 | Seedling fresh weight (Fig3C), relative to mock (A. thaliana seedlings; mik2-1, 1 μM, replicate 6): 0.9081 | Seedling fresh weight (Fig3C), relative to mock (A. thaliana seedlings; mik2-1, 1 μM, replicate 7): 1.002 | Seedling fresh weight (Fig3C), relative to mock (A. thaliana seedlings; mik2-1, 1 μM, replicate 8): 0.9854 | Seedling fresh weight (Fig3C), relative to mock (A. thaliana seedlings; mik2-1, 1 μM, replicate 9): 1.022 | Seedling fresh weight (Fig3C), relative to mock (A. thaliana seedlings; mik2-1, 1 μM, replicate 10): 1.049 | Seedling fresh weight (Fig3C), relative to mock (A. thaliana seedlings; mik2-1, 1 μM, replicate 11): 1.127 | Seedling fresh weight (Fig3C), relative to mock (A. thaliana seedlings; mik2-1, 1 μM, replicate 12): 1.002 | Seedling fresh weight (Fig3C), relative to mock (A. thaliana seedlings; mik2-1, 10 μM, replicate 1): 1.163 | Seedling fresh weight (Fig3C), relative to mock (A. thaliana seedlings; mik2-1, 10 μM, replicate 2): 0.8385 | Seedling fresh weight (Fig3C), relative to mock (A. thaliana seedlings; mik2-1, 10 μM, replicate 3): 1.18 | Seedling fresh weight (Fig3C), relative to mock (A. thaliana seedlings; mik2-1, 10 μM, replicate 4): 1.075 | Seedling fresh weight (Fig3C), relative to mock (A. thaliana seedlings; mik2-1, 10 μM, replicate 5): 0.8419 | Seedling fresh weight (Fig3C), relative to mock (A. thaliana seedlings; mik2-1, 10 μM, replicate 6): 0.8825 | Seedling fresh weight (Fig3C), relative to mock (A. thaliana seedlings; mik2-1, 10 μM, replicate 7): 1.082 | Seedling fresh weight (Fig3C), relative to mock (A. thaliana seedlings; mik2-1, 10 μM, replicate 8): 0.9738 | Seedling fresh weight (Fig3C), relative to mock (A. thaliana seedlings; mik2-1, 10 μM, replicate 9): 0.9332 | Seedling fresh weight (Fig3C), relative to mock (A. thaliana seedlings; mik2-1, 10 μM, replicate 10): 0.9569 | Seedling fresh weight (Fig3C), relative to mock (A. thaliana seedlings; mik2-1, 10 μM, replicate 11): 0.9941 | Seedling fresh weight (Fig3C), relative to mock (A. thaliana seedlings; mik2-1, 10 μM, replicate 12): 0.896

Kd [1]: 275 nM
B1: BAK1 ectodomain (residues 1–220) (domain or fragment)
chain: NAEGDALSALKNSLADPNKVLQSWDATLVTPCTWFHVTCNSDNSVTRVDLGNANLSGQLVMQLGQLPNLQYLELYSNNITGTIPEQLGNLTELVSLDLYLNNLSGPIPSTLGRLKKLRFLRLNNNSLSGEIPRSLTAVLTLQVLDLSNNPLTGDIPVNGSFSLFTPISFANTKLTPLPASPPPPISPTPPSPAGS
